From patent publication US20240381872A1, “SUBSTITUTED 2,3-DIHYDRO[1,3]THIAZOLO[4,5-B]PYRIDINES, SALTS THEREOF AND THEIR USE AS HERBICIDALLY ACTIVE SUBSTANCES” (BAYER AKTIENGESELLSCHAFT, priority 2021, published 2024)

Assays:
Type in all cases: in vivo
[1] = system: Echinochloa crus-galli (ECHCG); assay: Herbicidal pre-emergence action, section A (Table A3); conditions: application rate 320 g/ha, visual grading after ca. 3 weeks vs untreated controls
Procedure, shortened: (§1)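 Seeds sown in sandy loam and covered with soil; compounds formulated as WP or EC were applied to the soil surface as aqueous suspension or emulsion with 0.5% additive at 600 l water/ha. Pots kept in greenhouse under optimum conditions; damage scored visually after ca. 3 weeks versus untreated controls (0–100%).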

[2] = system: Abutilon theophrasti (ABUTH); assay: Herbicidal pre-emergence action, section A (Table A1); conditions: visual grading after ca. 3 weeks vs untreated controls
Procedure, shortened: as §1

[3] = system: Alopecurus myosuroides (ALOMY); assay: Herbicidal pre-emergence action, section A (Table A2); conditions: visual grading after ca. 3 weeks vs untreated controls
Procedure, shortened: as §1

Stellaria media (STEME) = assay: Herbicidal post-emergence action, section B (Table B9); conditions: visual rating about 3 weeks after treatment vs untreated controls
Procedure, shortened: (§2)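 Weeds were sown in sandy loam and grown in a greenhouse, then sprayed at the one-leaf stage 2 to 3 weeks after sowing. Compounds, formulated as WP or EC, went on as aqueous suspension or emulsion with 0.5% additive at 600 liters per hectare. Visual rating after about 3 weeks against untreated controls (100% = plants dead, 0% = like controls).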

[4] = system: Amaranthus retroflexus (AMARE); assay: Herbicidal pre-emergence action, section A (Table A11)
Procedure, shortened: as §1

[5] = system: Amaranthus retroflexus (AMARE); assay: Herbicidal post-emergence action, section E (Table E3); conditions: application rate 320 g/ha, assessed visually after ca. 3 weeks
Text: (§3) Seeds of mono- and dicotyledonous weed plants and crop plants were sown, in plastic or organic planting pots, in sandy loam, covered with soil and grown in a greenhouse under controlled growth conditions. 2 to 3 weeks after sowing, the test plants were sprayed in the single-leaf stage. The compounds according to the invention, formulated in form of wettable powders (WP) or as emulsifiable concentrates (EC), were sprayed onto the green plant parts as aqueous suspension or emulsion, with the addition of 0.5% of an additive, at an application rate of 600 l of water/ha (converted). The test plants were placed in the greenhouse for ca. 3 weeks under optimum growth conditions, and then the effect of the preparations was assessed visually in comparison with untreated controls (herbicidal effect in percent (%): 100% effect=plants have died off, 0% effect=as control plants).

[6] = system: Abutilon theophrasti (ABUTH); assay: Herbicidal pre-emergence action, section C (Table C1); conditions: visual grading after ca. 3 weeks vs untreated controls
Text: Seeds of mono- and dicotyledonous weed plants and crop plants were sown, in plastic or organic planting pots, in sandy loam and covered with soil. The compounds according to the invention, formulated in the form of wettable powders (WP) or as emulsifiable concentrates (EC), were applied to the surface of the covering soil as aqueous suspension or emulsion, with the addition of 0.5% of an additive, at an application rate of 600 l of water/ha (converted). Following treatment, the pots were placed in a greenhouse and kept under optimum growth conditions for the test plants. The visual grading of the damage to the test plants was carried out after ca. 3 weeks in comparison to untreated controls (herbicidal effect in percent (%): 100% effect=plants have died off, 0% effect=as control plants).

[7] = system: Abutilon theophrasti (ABUTH); assay: Herbicidal post-emergence action, section E (Table E1); conditions: assessed visually after ca. 3 weeks
Text: as §3

[8] = system: Echinochloa crus-galli (ECHCG); assay: Herbicidal post-emergence action, section E (Table E5); conditions: visual assessment ca. 3 weeks after spraying
Text: as §3

Lolium rigidum (LOLRI) [9] = assay: Herbicidal pre-emergence action, section C (Table C5); conditions: visual grading after ca. 3 weeks
Procedure, shortened: (§4)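 Greenhouse pre-emergence test on sandy loam: spray of formulated compound onto covering soil at 600 l water/ha, then percent damage judged by eye after ca. 3 weeks relative to untreated pots.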

Lolium rigidum (LOLRI) [10] = assay: Herbicidal post-emergence action, section B (Table B5); conditions: visual rating about 3 weeks after treatment vs untreated controls
Procedure, shortened: as §2

Kochia scoparia (KCHSC) = assay: Herbicidal pre-emergence action, section A (Table A4); conditions: visual grading after ca. 3 weeks vs untreated controls
Procedure, shortened: as §1

[11] = system: Amaranthus retroflexus (AMARE); assay: Herbicidal post-emergence action, section B (Table B11); conditions: application rate 320 g/ha, visual rating about 3 weeks after treatment vs untreated controls
Procedure, shortened: as §2

Setaria viridis (SETVI) = assay: Herbicidal pre-emergence action, section C (Table C8); conditions: application rate 80 g/ha, visual grading after ca. 3 weeks
Procedure, shortened: as §4

[12] = Amaranthus retroflexus, post-emergence, 504 h, read-out: post-emergence activity against AMARE in %

Row | SMILES | pre-emergence activity against ECHCG in % [1] | pre-emergence activity against ABUTH in % ([2]; application rate 1280 g/ha) | post-emergence activity against STEME in % (Stellaria media (STEME); application rate 320 g/ha) | post-emergence activity against AMARE in % [5] | pre-emergence activity against ABUTH in % ([6]; application rate 320 g/ha) | post-emergence activity against ABUTH in % ([7]; application rate 320 g/ha) | post-emergence activity against ECHCG in % ([8]; application rate 320 g/ha) | pre-emergence activity against LOLRI in % (Lolium rigidum (LOLRI) [9]; application rate 320 g/ha) | post-emergence activity against LOLRI in % (Lolium rigidum (LOLRI) [10]; application rate 1280 g/ha) | post-emergence activity against AMARE in % [11] | pre-emergence activity against ALOMY in % ([3]; application rate 320 g/ha) | pre-emergence activity against SETVI in % (Setaria viridis (SETVI)) | pre-emergence activity against AMARE in % ([4]; application rate 320 g/ha) | pre-emergence activity against KCHSC in % (Kochia scoparia (KCHSC); application rate 320 g/ha) | post-emergence activity against ABUTH in % ([7]; application rate 80 g/ha) | other results
1 | COC(=O)CCC(=O)N1CSc2cc(C)c(-c3ccccc3F)nc21 [Example I-010] | 100% | 90% | 90% | 80% | 80% | 80% | 90% | 100% | 90% | 90% | – | – | – | – | – | pre-emergence activity against ALOMY in % ([3]; application rate 1280 g/ha): 100%; pre-emergence activity against AMARE in % ([4]; application rate 1280 g/ha): 100%; pre-emergence activity against KCHSC in % (Kochia scoparia (KCHSC); application rate 1280 g/ha): 100%
2 | Cc1ccccc1-c1nc2c(cc1C)SCN2C(=O)C1(C)CC(Cl)=NO1 (stereo not drawn) [Example I-137] | 100% | 100% | – | 80% | 90% | 80% | 90% | 100% | – | 90% | 90% | 100% | 100% | 90% | – | post-emergence activity against STEME in % (Stellaria media (STEME); application rate 1280 g/ha): 90%
3 | CCOCCS(=O)(=O)N1C[S+]([O-])c2cc(C)c(-c3ccccc3F)nc21 (stereo not drawn) [Example I-127] | – | – | – | – | – | – | – | – | – | – | – | – | – | – | – | pest or weed control at 320 g/ha ([1]; Echinochloa crus-galli, pre-emergence, 504 h, read-out: pre-emergence activity against ECHCG in %): 100%; pest or weed control at 320 g/ha ([3]; Alopecurus myosuroides, pre-emergence, 504 h, application rate 320 g/ha, read-out: pre-emergence activity against ALOMY in %): 100%; pest or weed control at 1280 g/ha (Stellaria media (STEME); Stellaria media, post-emergence, 504 h, application rate 1280 g/ha, read-out: post-emergence activity against STEME in %): 90%; pest or weed control at 80 g/ha (Setaria viridis (SETVI); Setaria viridis, pre-emergence, 504 h, read-out: pre-emergence activity against SETVI in %): 100%; pest or weed control at 320 g/ha ([4]; Amaranthus retroflexus, 504 h, application rate 320 g/ha, read-out: pre-emergence activity against AMARE in %): 90%; pest or weed control at 320 g/ha [5, 12]: 90%; pest or weed control at 320 g/ha ([6]; Abutilon theophrasti, pre-emergence, 504 h, application rate 320 g/ha, read-out: pre-emergence activity against ABUTH in %): 90%; pest or weed control at 80 g/ha ([7]; Abutilon theophrasti, post-emergence, 504 h, application rate 80 g/ha, read-out: post-emergence activity against ABUTH in %): 80%; pest or weed control at 320 g/ha ([8]; Echinochloa crus-galli, 504 h, application rate 320 g/ha, read-out: post-emergence activity against ECHCG in %): 90%; pest or weed control at 80 g/ha (Lolium rigidum (LOLRI) [9]; Lolium rigidum, pre-emergence, 504 h, application rate 80 g/ha, read-out: pre-emergence activity against LOLRI in %): 80%; pest or weed control at 1280 g/ha (Lolium rigidum (LOLRI) [10]; Lolium rigidum, post-emergence, 504 h, application rate 1280 g/ha, read-out: post-emergence activity against LOLRI in %): 90%; pest or weed control at 1280 g/ha (Kochia scoparia (KCHSC); Bassia scoparia, pre-emergence, 504 h, application rate 1280 g/ha, read-out: pre-emergence activity against KCHSC in %): 100%; pest or weed control at 320 g/ha [11, 12]: 90%
4 | Cc1cc2c(nc1-c1ccccc1F)N(C(=O)C1(C)CC(Cl)=NO1)CS2 (stereo not drawn) [Example I-083] | 100% | – | 90% | 80% | 90% | – | – | 80% | 90% | 90% | 100% | 100% | 100% | 90% | 90% | post-emergence activity against ECHCG in % ([8]; application rate 80 g/ha): 80%
5 | COCC1(C(=O)N2CSc3cc(C)c(-c4ccccc4F)nc32)CC(Cl)=NO1 (stereo not drawn) [Example I-128] | 100% | – | 90% | 90% | – | – | 90% | – | – | 90% | 100% | 100% | 90% | 90% | 80% | pre-emergence activity against ABUTH in % ([2]; application rate 320 g/ha): 90%; pre-emergence activity against ABUTH in % ([6]; application rate 80 g/ha): 80%; pre-emergence activity against LOLRI in % (Lolium rigidum (LOLRI) [9]; application rate 80 g/ha): 100%; post-emergence activity against LOLRI in % (Lolium rigidum (LOLRI) [10]; application rate 320 g/ha): 90%
